Data taken from patent US8940720B2, “Macrocycles as factor XIa inhibitors” (Bristol-Myers Squibb Company, priority 2010, dated 2015).
Like-named read-outs stand apart in the source and are kept apart here.

Key:
[1] = from C=CCCC(=O)Nc1cc(NC(=O)OC)ccc1-c1nnc(Cl)cc1C(CC=C)NC(=O)OC(C)(C)C; rcm bond; 12-membered ring; Grubbs II (0.3 eq); DCM; 6.6 mM

Work on CC(C)(C)OC(=O)N[C@H]1CC=CCCCc2ccccc2-c2cn(COCC[Si](C)(C)C)c1n2 yielded a ring closure, yield of all isomers (from C=CCCCc1ccccc1-c1cn(COCC[Si](C)(C)C)c([C@H](CC=C)NC(=O)OC(C)(C)C)n1, rcm bond, Grubbs II, DCM, 0.97 mM, 40.0 °C, 1.0 h) of 62.9%.
With CC(C)(C)OC(=O)N[C@H]1CC=CCCOc2ccccc2-c2cn(COCC[Si](C)(C)C)c1n2 the ring closure, yield of all isomers (from C=CCCOc1ccccc1-c1cn(COCC[Si](C)(C)C)c([C@H](CC=C)NC(=O)OC(C)(C)C)n1, rcm bond, Grubbs II, DCM, 1.02 mM, 40.0 °C, 1.0 h) was 29%.
With COC(=O)Nc1ccc2c(c1)CCCN(C)C(=O)C[C@H](NC(=O)OC(C)(C)C)c1nc-2cn1COCC[Si](C)(C)C the ring closure, yield of all isomers (from CNCCCc1cc(NC(=O)OC)ccc1-c1cn(COCC[Si](C)(C)C)c([C@H](CC(=O)O)NC(=O)OC(C)(C)C)n1, amide bond, BOP, DCM, 8.64 mM, 25.0 °C, 2.0 h) was 39.4%.
Compound COC(=O)Nc1ccc2c(c1)NC(=O)CC/C=C/CC(NC(=O)OC(C)(C)C)c1cc(Cl)nnc1-2 (stereo not shown) has a ring closure, yield of all isomers (from C=CCCC(=O)Nc1cc(NC(=O)OC)ccc1-c1nnc(Cl)cc1C(CC=C)NC(=O)OC(C)(C)C, rcm bond, Grubbs II, DCM, 6.6 mM, 40.0 °C, 1.0 h) of 56% and a ring closure, isolated yield [1] of 56%.
With COC(=O)Nc1ccc2c(c1)NC(=O)CCC(C)=CC[C@H](NC(=O)OC(C)(C)C)c1nc-2cn1COCC[Si](C)(C)C the ring closure, yield of all isomers (from C=CC[C@H](NC(=O)OC(C)(C)C)c1nc(-c2ccc(NC(=O)OC)cc2NC(=O)CCC(=C)C)cn1COCC[Si](C)(C)C, rcm bond, Grubbs II, DCE, 105.0 mM, 120.0 °C, 0.33 h) was 34.6%.
Compound COC(=O)Nc1ccc2c(c1)NC(=O)CCN(C(=O)OC(C)(C)C)C[C@H](NC(=O)OCc1ccccc1)c1nc-2cn1COCC[Si](C)(C)C has a ring closure, yield of all isomers (from COC(=O)Nc1ccc(-c2cn(COCC[Si](C)(C)C)c([C@H](CN(CCC(=O)O)C(=O)OC(C)(C)C)NC(=O)OCc3ccccc3)n2)c(N)c1, amide bond, BOP, DCM, 0.93 mM, 25.0 °C, 5.0 h) of 87%.
With COC(=O)Nc1ccc2c(c1)N[C@@H](C(=O)OC)CC=CC[C@H](NC(=O)OC(C)(C)C)c1nc-2cn1COCC[Si](C)(C)C the ring closure, yield of all isomers (from C=CC[C@H](NC(=O)OC(C)(C)C)c1nc(-c2ccc(NC(=O)OC)cc2N[C@H](CC=C)C(=O)OC)cn1COCC[Si](C)(C)C, rcm bond, Grubbs II, DCE, 40.0 mM, 120.0 °C, 0.33 h) was 30%.
COC(=O)c1ccc2c(c1)OCCNC(=O)CC(NC(=O)OC(C)(C)C)c1cc-2nnc1Cl (stereo not shown) showed a ring closure, yield of all isomers (from COC(=O)c1ccc(-c2cc(C(CC(=O)O)NC(=O)OC(C)(C)C)c(Cl)nn2)c(OCCN)c1, amide bond, BOP, DCM, 1.28 mM, 25.0 °C, 2.5 h) of 15.3%.
Compound CC(C)(C)OC(=O)N[C@H]1CC=CCCC(=O)Nc2ccccc2C2=NN=C1O2 (mixture of isomers) has a ring closure, yield of all isomers (from C=CCCC(=O)Nc1ccccc1-c1nnc([C@H](CC=C)NC(=O)OC(C)(C)C)o1, rcm bond, Grubbs II, DCM, 4.8 mM, 75.0 °C, 1.5 h) of 27%.
